In ChEMBL document CHEMBL5042492, “Noncovalent CDK12/13 dual inhibitors-based PROTACs degrade CDK12-Cyclin K complex and induce synthetic lethality with PARP inhibitor” (Eur J Med Chem, 2022):

Molecular target: CDK12/Cyclin K (Homo sapiens, UniProt Q9NYV4)
Test: Inhibition of human CDK12 (696 to 1082 residues) /cyclinK (1 to 300 residues) using ac-YSPTSPpSYSPTSFpS-YSPTSPpSY-[PEG2]-RR-amid peptide as substrate in presence of ATP measured after 2 hrs by ADP-Glo kinase assay
Assay type: protein-complex assay

Sequence of CDK12/Cyclin K (O75909 whole entry, the tested form may be a part): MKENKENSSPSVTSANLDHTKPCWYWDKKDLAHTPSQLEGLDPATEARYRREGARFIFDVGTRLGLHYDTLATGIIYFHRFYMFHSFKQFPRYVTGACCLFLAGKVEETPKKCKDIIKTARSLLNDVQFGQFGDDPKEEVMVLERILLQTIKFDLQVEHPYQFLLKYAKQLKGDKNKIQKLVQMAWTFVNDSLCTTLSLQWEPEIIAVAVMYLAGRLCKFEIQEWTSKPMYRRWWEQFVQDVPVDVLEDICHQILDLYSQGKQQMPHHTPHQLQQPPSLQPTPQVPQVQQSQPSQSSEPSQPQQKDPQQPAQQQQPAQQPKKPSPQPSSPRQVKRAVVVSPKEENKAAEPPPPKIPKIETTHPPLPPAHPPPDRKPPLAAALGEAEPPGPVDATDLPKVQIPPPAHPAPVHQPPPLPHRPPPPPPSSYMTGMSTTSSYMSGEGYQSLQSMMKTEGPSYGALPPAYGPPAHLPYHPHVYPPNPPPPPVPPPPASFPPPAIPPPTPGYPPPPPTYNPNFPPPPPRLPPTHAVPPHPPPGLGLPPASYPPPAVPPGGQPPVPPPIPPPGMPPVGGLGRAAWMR
Sequence of CDK12/Cyclin K (Q9NYV4 whole entry, the tested form may be a part): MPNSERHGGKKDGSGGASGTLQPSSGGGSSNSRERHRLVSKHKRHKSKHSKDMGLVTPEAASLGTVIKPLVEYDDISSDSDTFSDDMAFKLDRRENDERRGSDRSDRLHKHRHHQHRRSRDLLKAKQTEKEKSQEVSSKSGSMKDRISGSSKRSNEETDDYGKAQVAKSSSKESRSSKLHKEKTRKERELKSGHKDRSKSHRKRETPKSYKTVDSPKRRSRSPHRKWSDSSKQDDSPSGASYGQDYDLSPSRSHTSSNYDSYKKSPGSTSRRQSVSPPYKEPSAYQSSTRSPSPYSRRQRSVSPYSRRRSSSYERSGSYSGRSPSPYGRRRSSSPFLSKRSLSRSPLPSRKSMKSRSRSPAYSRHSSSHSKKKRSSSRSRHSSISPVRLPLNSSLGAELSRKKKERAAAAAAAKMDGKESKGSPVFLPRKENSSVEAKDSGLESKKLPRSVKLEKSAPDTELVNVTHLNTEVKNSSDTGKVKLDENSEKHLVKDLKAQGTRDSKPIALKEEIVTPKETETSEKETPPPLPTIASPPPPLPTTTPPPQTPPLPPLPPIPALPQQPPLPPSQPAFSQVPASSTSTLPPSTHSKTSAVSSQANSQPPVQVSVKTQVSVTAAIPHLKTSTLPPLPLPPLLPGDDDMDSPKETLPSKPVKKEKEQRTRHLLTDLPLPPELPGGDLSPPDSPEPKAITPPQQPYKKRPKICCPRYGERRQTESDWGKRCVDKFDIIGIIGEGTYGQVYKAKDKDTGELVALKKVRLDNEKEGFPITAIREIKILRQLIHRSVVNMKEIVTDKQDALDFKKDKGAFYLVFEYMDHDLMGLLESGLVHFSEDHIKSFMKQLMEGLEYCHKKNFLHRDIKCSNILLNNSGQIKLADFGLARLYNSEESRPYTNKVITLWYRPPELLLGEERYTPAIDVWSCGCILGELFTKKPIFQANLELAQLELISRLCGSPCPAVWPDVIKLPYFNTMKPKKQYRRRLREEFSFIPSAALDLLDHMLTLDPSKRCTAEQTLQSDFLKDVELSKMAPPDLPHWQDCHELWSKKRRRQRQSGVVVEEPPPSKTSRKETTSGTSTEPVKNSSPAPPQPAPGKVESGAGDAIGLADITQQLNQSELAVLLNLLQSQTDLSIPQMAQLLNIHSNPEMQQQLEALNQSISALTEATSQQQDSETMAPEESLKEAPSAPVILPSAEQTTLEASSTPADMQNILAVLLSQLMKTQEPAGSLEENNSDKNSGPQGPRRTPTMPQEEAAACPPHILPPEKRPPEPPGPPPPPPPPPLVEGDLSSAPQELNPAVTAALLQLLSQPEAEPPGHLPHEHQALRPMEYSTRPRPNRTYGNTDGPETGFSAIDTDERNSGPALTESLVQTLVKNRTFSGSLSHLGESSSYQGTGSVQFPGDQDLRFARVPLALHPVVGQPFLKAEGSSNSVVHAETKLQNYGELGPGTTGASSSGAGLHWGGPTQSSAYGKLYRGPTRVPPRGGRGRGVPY

Q: Which IC50 does the source give for `COCCOCCOc1cc2[nH]c(CNc3nc(N4CCOCC4)nc4c3ncn4C(C)C)nc2cc1F` here?
A: 237 nM
